Assay [1] has as its target hGYS1 enzyme (recombinant hGYS1/GN1 protein) (Homo sapiens (Human), UniProt P13807). In words: GYS1 coupled enzyme assay (PK/LDH). It is filed as biochemical. Particulars: hGYS1/GN1 50 nM, UDP-Glucose 0.8 mM, G6P 1 mM; geometric mean of at least 2 runs.
The test system of assay [2] is hGYS1 enzyme / glycogen synthesis in HeLa cells. Briefly: GYS1 cell based assay (glycogen synthesis, Glucose-glo). Set-up: species or system human. To be noted: Homo sapiens, HeLa, 24 h, 24 h incubation, 20 mM glucose, geometric mean of at least 2 runs. The method in brief:
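HeLa cells starved 24 h in medium containing only 1× Glutamax were plated onto compound in medium with 20 mM glucose (1% DMSO final) for 24 h, 37 °C, 5% CO2. Acid lysates were Tris-quenched, glucoamylase-digested (pH 5.3, 1 h, 37 °C) and read by Glucose-glo luminescence. IC50 came from Hill fits, as geometric mean of ≥2 runs.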

The target in assay [3] is hGYS2 enzyme (recombinant hGYS2/GN1 protein) (Homo sapiens (Human), UniProt P54840). Briefly: GYS2 coupled enzyme assay (PK/LDH). In kind it is biochemical. Particulars: geometric mean of at least 2 assay runs on separate days, read-out: Avg_IC50. The method in brief:
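Recombinant hGYS2/GN1 (200 nM) with 2 mM UDP-glucose, 0.2% rabbit liver glycogen, 2 mM glucose-6-phosphate; UDP coupled via PK/LDH (2 mM PEP, 0.6 mM NADH). Buffer 50 mM Tris pH 7.5, 2 mM MgCl2, 100 mM KCl, 2.5% DMSO. A340 slope over 10 min; IC50 from Hill fit of duplicates.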

Sequence of hGYS2 enzyme (recombinant hGYS2/GN1 protein) (P54840 whole entry): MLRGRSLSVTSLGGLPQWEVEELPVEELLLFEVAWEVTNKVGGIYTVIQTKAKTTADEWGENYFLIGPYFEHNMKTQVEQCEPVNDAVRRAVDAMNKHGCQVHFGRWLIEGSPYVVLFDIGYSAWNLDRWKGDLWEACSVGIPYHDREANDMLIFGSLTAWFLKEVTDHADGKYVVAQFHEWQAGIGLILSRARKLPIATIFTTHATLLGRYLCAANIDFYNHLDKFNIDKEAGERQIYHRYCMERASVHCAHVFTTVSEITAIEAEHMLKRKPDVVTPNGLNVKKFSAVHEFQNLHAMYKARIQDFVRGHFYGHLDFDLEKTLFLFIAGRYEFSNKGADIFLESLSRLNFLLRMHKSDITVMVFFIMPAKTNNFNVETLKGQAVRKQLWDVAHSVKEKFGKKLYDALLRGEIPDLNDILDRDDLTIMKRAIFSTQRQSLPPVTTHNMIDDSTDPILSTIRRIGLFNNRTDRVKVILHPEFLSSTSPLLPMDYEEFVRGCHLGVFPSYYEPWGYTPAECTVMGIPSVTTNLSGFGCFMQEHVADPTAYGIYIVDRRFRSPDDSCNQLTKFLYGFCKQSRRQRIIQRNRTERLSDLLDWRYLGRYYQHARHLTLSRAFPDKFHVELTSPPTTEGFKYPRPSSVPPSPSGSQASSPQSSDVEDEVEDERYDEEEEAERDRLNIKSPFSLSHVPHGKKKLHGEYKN
Sequence of hGYS2 enzyme (recombinant hGYS2/GN1 protein) (P46976 whole entry partner): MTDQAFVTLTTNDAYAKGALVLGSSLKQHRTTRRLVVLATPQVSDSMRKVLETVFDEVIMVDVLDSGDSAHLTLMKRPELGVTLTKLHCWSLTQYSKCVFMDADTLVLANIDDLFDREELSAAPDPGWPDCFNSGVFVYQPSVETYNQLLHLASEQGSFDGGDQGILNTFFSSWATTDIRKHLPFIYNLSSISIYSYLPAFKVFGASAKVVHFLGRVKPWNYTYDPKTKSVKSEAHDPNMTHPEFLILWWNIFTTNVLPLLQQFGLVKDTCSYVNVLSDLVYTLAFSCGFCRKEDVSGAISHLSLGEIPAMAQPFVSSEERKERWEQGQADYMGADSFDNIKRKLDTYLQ
Sequence of hGYS1 enzyme (recombinant hGYS1/GN1 protein) (P13807 whole entry): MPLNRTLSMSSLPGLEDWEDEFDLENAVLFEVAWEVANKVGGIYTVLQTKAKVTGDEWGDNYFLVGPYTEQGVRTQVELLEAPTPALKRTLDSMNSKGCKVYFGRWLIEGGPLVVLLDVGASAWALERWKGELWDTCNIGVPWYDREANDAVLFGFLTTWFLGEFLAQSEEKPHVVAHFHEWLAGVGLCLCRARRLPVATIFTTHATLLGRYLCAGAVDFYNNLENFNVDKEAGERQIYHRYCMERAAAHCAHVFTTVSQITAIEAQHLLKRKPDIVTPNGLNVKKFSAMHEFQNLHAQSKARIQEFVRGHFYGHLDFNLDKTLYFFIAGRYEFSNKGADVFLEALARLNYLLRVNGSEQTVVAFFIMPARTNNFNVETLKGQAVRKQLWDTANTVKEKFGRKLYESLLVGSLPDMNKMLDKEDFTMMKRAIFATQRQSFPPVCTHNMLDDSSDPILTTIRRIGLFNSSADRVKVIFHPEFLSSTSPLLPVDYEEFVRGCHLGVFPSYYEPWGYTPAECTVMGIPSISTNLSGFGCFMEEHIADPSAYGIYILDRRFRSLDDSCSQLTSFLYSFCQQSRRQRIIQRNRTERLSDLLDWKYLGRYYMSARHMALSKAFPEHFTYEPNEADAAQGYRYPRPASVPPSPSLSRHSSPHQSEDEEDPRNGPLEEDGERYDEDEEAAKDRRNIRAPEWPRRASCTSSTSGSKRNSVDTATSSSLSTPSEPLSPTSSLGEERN
Sequence of hGYS1 enzyme (recombinant hGYS1/GN1 protein) (P46976 whole entry partner): as the sequence (P46976 whole entry partner) above

With `CC(C)c1ccc([C@@H](NC(=O)[C@@H]2C[C@@H](F)CN2C(=O)Cc2cnnn2C)c2ccccc2)cc1F` [Compound 335, (2S,4R)-4-fluoro-N-[(S)-[3-fluoro-4-(propan-2-yl)phenyl](phenyl)methyl]-1-[2-(1-methyl-1H-1,2,3-triazol-5-yl)acetyl]pyrrolidine-2-carboxamide], the results for the IC50 in assay [1], in assay [2] and in assay [3] were 37 nM, 450 nM and more than 100 µM, respectively.

For `CC(C)c1ccc([C@@H](NC(=O)[C@@H]2C[C@@H](F)CN2C(=O)Cc2noc(=O)n2C)c2ccccc2)nc1F` [Compound 402, (2S,4R)-4-fluoro-N-[(S)-[6-fluoro-5-(propan-2-yl)pyridin-2-yl](phenyl)methyl]-1-[2-(4-methyl-5-oxo-4,5-dihydro-1,2,4-oxadiazol-3-yl)acetyl]pyrrolidine-2-carboxamide], the IC50 in assay [1] was 59 nM; in assay [2], 850 nM; in assay [3] it was more than 100 µM.

`CC(C)c1ccc([C@@H](NC(=O)[C@@H]2C[C@@H](F)CN2C(=O)[C@@H](C)NC(=O)N(C)C)c2ccccc2)nc1` [Compound 274, (2S,4R)-1-[(2R)-2-[(dimethylcarbamoyl)amino]propanoyl]-4-fluoro-N-[(S)-phenyl[5-(propan-2-yl)pyridin-2-yl]methyl]pyrrolidine-2-carboxamide]: the IC50 in assay [1] is 264 nM; in assay [2], 3230 nM; in assay [3], more than 100 µM.

For the molecule `CC(C)c1ccc([C@@H](NC(=O)[C@@H]2C[C@@H](F)CN2C(=O)Cc2cnn(C)c2)c2ccccc2)cc1F` [Compound 355, (2S,4R)-4-fluoro-N-[(S)-[3-fluoro-4-(propan-2-yl)phenyl](phenyl)methyl]-1-[2-(1-methyl-1H-pyrazol-4-yl)acetyl]pyrrolidine-2-carboxamide], the results for the IC50 in assay [1], in assay [2] and in assay [3] were 18 nM, 160 nM and more than 100 µM, respectively.

For `Cc1cc([C@@H](NC(=O)[C@@H]2C[C@@H](F)CN2C(=O)Cc2cnn[nH]2)c2ccccc2)ccc1C(C)C` [Compound 670, (2S,4R)-4-fluoro-N-[(S)-[3-methyl-4-(propan-2-yl)phenyl](phenyl)methyl]-1-[2-(1H-1,2,3-triazol-5-yl)acetyl]pyrrolidine-2-carboxamide], the IC50 in assay [1] is 71 nM; in assay [2], 660 nM; in assay [3], more than 100 µM.

Turning to `Cc1coc(CC(=O)N2C[C@H](F)C[C@H]2C(=O)N[C@@H](c2ccccc2)c2ccc(C(C)C)c(F)n2)n1` [Compound 409, (2S,4R)-4-fluoro-N-[(S)-[6-fluoro-5-(propan-2-yl)pyridin-2-yl](phenyl)methyl]-1-[2-(4-methyl-1,3-oxazol-2-yl)acetyl] pyrrolidine-2-carboxamide], the IC50 was 10 nM in assay [1], 290 nM in assay [2] and more than 100 µM in assay [3].

In the case of `CC(C)c1ccc([C@@H](NC(=O)[C@@H]2C[C@@H](F)CN2C(=O)Cc2cnn[nH]2)c2ccccc2)cc1F` [Compound 326, (2S,4R)-4-fluoro-N-[(S)-[3-fluoro-4-(propan-2-yl)phenyl](phenyl)methyl]-1-[2-(1H-1,2,3-triazol-5-yl)acetyl]pyrrolidine-2-carboxamide], the IC50 is 20 nM in assay [1], 340 nM in assay [2] and more than 100 µM in assay [3].

As to `CNC(=O)NCC(=O)N1C[C@H](F)C[C@H]1C(=O)N[C@@H](c1ccccc1)c1ccc(C2CC2)c(F)n1` [Compound 301, (2S,4R)-N-[(S)-(5-cyclopropyl-6-fluoropyridin-2-yl)(phenyl)methyl]-4-fluoro-1-{2-[(methylcarbamoyl)amino]acetyl}pyrrolidine-2-carboxamide], the IC50 in assay [1] was 46 nM; in assay [2], 900 nM; in assay [3], more than 100 µM.

Turning to `CC(C)c1ccc([C@@H](NC(=O)[C@@H]2C[C@@H](F)CN2C(=O)Cn2nnc(C(F)(F)F)n2)c2ccccc2)nc1` [Compound 255, (2S,4R)-4-fluoro-N-[(S)-phenyl[5-(propan-2-yl)pyridin-2-yl]methyl]-1-{2-[5-(trifluoromethyl)-2H-1,2,3,4-tetrazol-2-yl]acetyl}pyrrolidine-2-carboxamide], the figures for the IC50 in assay [1], in assay [2] and in assay [3] were 88 nM, 1010 nM and more than 100 µM, respectively.

In the case of `CCn1c(=O)c(C)cn(CC(=O)N2C[C@H](F)C[C@H]2C(=O)N[C@@H](c2ccccc2)c2ccc(C(C)C)c(F)n2)c1=O` [Compound 794, (2S,4R)-1-[2-(3-ethyl-5-methyl-2,4-dioxo-1,2,3,4-tetrahydropyrimidin-1-yl)acetyl]-4-fluoro-N-[(S)-[6-fluoro-5-(propan-2-yl)pyridin-2-yl](phenyl)methyl] pyrrolidine-2-carboxamide], the IC50 in assay [1] is 2 nM; in assay [2], 40 nM; in assay [3], more than 100 µM.

Regarding `O=C(N[C@@H](c1ccccc1)c1ccc(C2CC(F)(F)C2)cn1)[C@@H]1C[C@@H](F)CN1C(=O)Cc1ncco1` [Compound 539, (2S,4R)-N-[(S)-[5-(3,3-difluorocyclobutyl)pyridin-2-yl] (phenyl)methyl]-4-fluoro-1-[2-(1,3-oxazol-2-yl)acetyl] pyrrolidine-2-carboxamide], the values for the IC50 in assay [1], in assay [2] and in assay [3] were 68 nM, 960 nM and more than 100 µM, respectively.

For `O=C(N[C@@H](c1ccccc1)c1ccc(C2CC2)c(F)c1)[C@@H]1C[C@@H](F)CN1C(=O)CN1CCNCC1=O` [Compound 465, (2S,4R)-N-[(S)-(4-cyclopropyl-3-fluorophenyl)(phenyl)methyl]-4-fluoro-1-[2-(2-oxopiperazin-1-yl)acetyl]pyrrolidine-2-carboxamide], the IC50 in assay [1] is 547 nM; in assay [2], 6040 nM; in assay [3] it was more than 100 µM.

With `Cn1cc(CC(=O)N2C[C@H](F)C[C@H]2C(=O)N[C@@H](c2ccccc2)c2ccc(C3(C)CC3)c(F)n2)c2ccccc21` [Compound 592, (2S,4R)-4-fluoro-N-[(S)-[6-fluoro-5-(1-methylcyclopropyl)pyridin-2-yl](phenyl)methyl]-1-[2-(1-methyl-1H-indol-3-yl)acetyl]pyrrolidine-2-carboxamide], the IC50 in assay [1] is 10 nM; in assay [2] it was 330 nM; in assay [3], more than 100 µM.

For `CC1(c2ccc([C@@H](NC(=O)[C@@H]3C[C@@H](F)CN3C(=O)CN3CCN(CC(F)(F)F)CC3=O)c3ccccc3)cc2F)CC1` [Compound 580, (2S,4R)-4-fluoro-N-[(S)-[3-fluoro-4-(1-methylcyclopropyl)phenyl](phenyl)methyl]-1-{2-[2-oxo-4-(2,2,2-trifluoroethyl)piperazin-1-yl]acetyl}pyrrolidine-2-carboxamide], the IC50 in assay [1] is 249 nM; in assay [2], 4270 nM; in assay [3], more than 100 µM.

As for `Cc1cn(CC(=O)N2C[C@H](F)C[C@H]2C(=O)N[C@@H](c2ccccc2)c2ccc(C(C)C)c(F)c2)c(=O)n(C)c1=O` [Compound 353, (2S,4R)-1-[2-(3,5-dimethyl-2,4-dioxo-1,2,3,4-tetrahydropyrimidin-1-yl)acetyl]-4-fluoro-N-[(S)-[3-fluoro-4-(propan-2-yl)phenyl](phenyl)methyl] pyrrolidine-2-carboxamide], the IC50 is 7 nM in assay [1], 90 nM in assay [2] and more than 100 µM in assay [3].

In the case of `CC1(c2ccc([C@@H](NC(=O)[C@@H]3C[C@@H](F)CN3C(=O)CN3CCNCC3=O)c3ccccc3)cc2F)CC1` [Compound 562, (2S,4R)-4-fluoro-N-[(S)-[3-fluoro-4-(1-methylcyclopropyl)phenyl](phenyl)methyl]-1-[2-(2-oxopiperazin-1-yl)acetyl]pyrrolidine-2-carboxamide], the IC50 in assay [1] was 685 nM; in assay [2], 7070 nM; in assay [3], more than 100 µM.

Consider `C[C@H]1CC[C@@H](C(=O)N[C@@H](c2ccccc2)c2ccc(C3CC3)c(F)n2)N1C(=O)Cc1cnn[nH]1` [Compound 321, (2S,5S)-N-[(S)-(5-cyclopropyl-6-fluoropyridin-2-yl)(phenyl)methyl]-5-methyl-1-[2-(1H-1,2,3-triazol-5-yl)acetyl]pyrrolidine-2-carboxamide], for which the IC50 in assay [1] is 124 nM; in assay [2] it was 1240 nM; in assay [3], more than 100 µM.

As for `O=C(N[C@@H](c1ccccc1)c1ccc(C2CC2)c(F)c1)[C@@H]1C[C@@H](F)CN1C(=O)Cc1cnc2ccccn12` [Compound 479, (2S,4R)-N-[(S)-(4-cyclopropyl-3-fluorophenyl)(phenyl)methyl]-4-fluoro-1-(2-{imidazo[1,2-a]pyridin-3-yl}acetyl)pyrrolidine-2-carboxamide], the IC50 in assay [1] is 55 nM; in assay [2], 1430 nM; in assay [3], more than 100 µM.

In the case of `CC(C)c1c(F)cc([C@@H](NC(=O)[C@@H]2C[C@@H](F)CN2C(=O)Cn2cnnn2)c2ccccc2)cc1F` [Compound 669, (2S,4R)-N-[(S)-[3,5-difluoro-4-(propan-2-yl)phenyl](phenyl)methyl]-4-fluoro-1-[2-(1H-1,2,3,4-tetrazol-1-yl)acetyl]pyrrolidine-2-carboxamide], the IC50 in assay [1] was 40 nM; in assay [2] it was 470 nM; in assay [3] it was more than 100 µM.

Source of the values: patent publication US11814367B2, “Inhibitors of glycogen synthase 1 (GYS1) and methods of use thereof” (Maze Therapeutics, Inc., priority 2021, dated 2023).
